Counter-ions that a name gives are not always drawn. Like-named read-outs stand apart in the source and are kept apart here.

The record followed here is patent publication US5262537A, “Derivatives of 4,5,6,7-tetrahydroimidazo-[4,5-c]pyridinyl-6-carboxylic acid” (priority 1993, dated 1993).

The target of one assay is T1, 5-HT3 (Rattus norvegicus, UniProt P35563).
T1 sequence (P35563 24-483): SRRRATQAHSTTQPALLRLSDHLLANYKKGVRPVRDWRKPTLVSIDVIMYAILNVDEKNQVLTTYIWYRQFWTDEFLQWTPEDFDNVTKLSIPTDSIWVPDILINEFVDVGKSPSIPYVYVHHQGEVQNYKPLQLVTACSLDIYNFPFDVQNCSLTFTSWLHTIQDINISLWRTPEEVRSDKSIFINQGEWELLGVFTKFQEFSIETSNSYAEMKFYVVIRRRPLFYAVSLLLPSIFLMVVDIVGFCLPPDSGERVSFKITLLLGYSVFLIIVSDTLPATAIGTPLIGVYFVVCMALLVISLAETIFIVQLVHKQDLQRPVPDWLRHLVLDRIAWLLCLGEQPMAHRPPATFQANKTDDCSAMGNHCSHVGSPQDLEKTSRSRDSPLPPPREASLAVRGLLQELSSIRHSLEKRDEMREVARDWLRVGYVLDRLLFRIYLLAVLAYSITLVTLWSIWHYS
Description: biochemical. The assay is classed as binding, Male Sprague-Dawley rats. Here is the method: A number of compounds in accordance with the present invention were tested for their 5-HT3 and D2 binding affinities in accord with the following procedures.
Male Sprague-Dawley rats (175-220 g) were sacrificed by decapitation and their brains removed rapidly. The entorhinal cortex was used for the 5-HT3 (5-hydroxytryptamine) binding assay and the remainder of the brain, minus the brain stem and cerebellum, was used for the D2 (dopamine) binding assay. The entorhinal cortex was harvested and prepared on the day of the assay.
The entorhinal cortex was homogenized in 20 volumes of cold 50 mM HEPES buffer, pH 7.4, while the remaining brain tissue was homogenized in 20 volumes of cold 50 mM Tris, pH 7.4. The homogenates were centrifuged at 4800×g for 15 minutes at 5° C. and the supernatants decanted. Pellets were resuspended in the original volume of HEPES or Tris. Homogenates were centrifuged and the supernatants decanted. Pellets were resuspended in the same volume of HEPES or Tris and incubated at 37° C. for 45 minutes to remove endogenous neurotransmitters. Homogenates were centrifuged and the supernatants were decanted. Pellets for D2 assays were stored at -50° C. until the day of the assay. The pellets for the 5-HT3 assay (entorhinal cortex) were resuspended in the appropriate amount of HEPES buffer and used promptly. Modifications of published assays for [^3 H]GR65630 (Kilpatrick et al., Nature: 330, 746-748 (1987)) and [^3 H]raclopride (Dewar et al., J. Pharmacol. Exp. Ther.: 250, 696-706 (1989) and Lidow et al., Proc. Natl. Acad. Sci. USA: 86, 6412-6416 (1989)) were used for the 5-HT3 and D2 binding assays, respectively.
Briefly, 0.25 ml of homogenate was incubated with either 0.2 nM of [^3 H]GR65630 or 1.0 nM of [^3 H]raclopride in a final volume of 0.5 ml. D2 binding also requires sodium chloride and potassium chloride (120 mM and 5 mM, final concentration, respectively). In the 5-HT3 assay, non-specific binding was defined in the presence of 100 uM quipazine. In the D2 assay, non-specific binding was defined in the presence of 100 uM of (+/-) sulpiride. Both assays were incubated at room temperature; [^3 H]GR65630 for 40 minutes and [^3 H]raclopride for 60 minutes. Test compounds (0.1 ml) were added to incubates where appropriate. Bound ligand was separated from free ligand by filtration and quantified using liquid scintillation spectrophotometry. IC50 values were calculate for all test compounds.

Another assay deals with Ferret. Description: Cisplatin Ferret Assay--Antiemetic Screening. The note with it: for inhibition in vivo at 0.1 mg/kg / ED50: Mustela putorius, iv, 4 h; for inhibition in vivo at 0.1 mg/kg: read-out: Ferret Cisplatin Test % Prot, 0.1 mg/Kg; for ED50: read-out: Ferret Cisplatin Test ED50. The format is in vivo, Male ferrets.
Setting [1] is: 0.2 nM [3H]GR65630, rat entorhinal cortex, 40 minutes, room temperature, read-out: 5-HT3 IC50.
[2] abbreviates: 0.1 mg/kg i.v., 30 minutes after cisplatin 10 mg/kg i.v., percent reduction of emetic episodes vs controls, four hours.
Where [3] appears, read: i.v., 30 minutes after cisplatin 10 mg/kg i.v., emetic episodes over four hours.

Description for Ferret: Male ferrets (castrated, descented, 1-2 kg) were purchased from Triple F Farms, Syre, Pa. Ferrets were housed four in a cage with a 12 hour light cycle and were fed ad libitum with Ralston Purina Cat Chow. Each ferret was used unfasted for the assay after a minimum of a 24 hour acclimation time in animal facility.
Ferret Preparation. Each ferret was anesthetized with 5% isoflurane-O2in a 20 gallon aquarium for 2 to 5 minutes. After removal of the anesthetic gas, the animals were removed and weighed. Injections were made into the dorsal front paw vein using a tourniquet and a 1 ml tuberculin syringe with a 25 g needle while the animal was maintained under anesthesia using a small nose cone delivering 5% isoflurane-O2. Cisplatin was injected using a 3 ml or 5 ml syringe in the opposite paw from the study compound or saline. Recovery time from anaesthesia was 5 to 8 minutes.
Drug Preparation. Cisplatin bulk powder was weighed and dissolved in normal saline at 75° C. to provide a 5 mg/ml solution (90 mg was placed in a scintillation vial and qs with 18 ml saline). The solution was stirred and maintained at 40° C. until ready for use. The study drug was weighed and dissolved in normal saline at room temperature to provide a 1 mg/ml solution (10 mg was placed in a scintillation vial and qs with 10 ml saline). Suspensions were heated to 40° C. to bring the study compound into solution. Compounds not soluble under these conditions were not assayed.
Assay. Cisplatin was injected i.v. at 10 mg/kg into twelve anesthetized ferrets daily at time zero. Normal saline (0.5 ml) or the study compound (0.1 or 1.0 mg/kg) was injected 30 minutes later in groups of three anesthetized ferrets. Order of treatment and treatment dose was selected at random, with the remaining treatment dose assayed in the next experiment.
Experimental Observations and Data Collection. Ferrets were viewed individually. The time and number of emetic episodes were recorded for four hours. Zero time was equivalent to the time of cisplatin injection. […] Retches were recorded but not counted. The total number of episodes for each of the four groups of three ferrets (+/-S.E.) was averaged and the effect of treatment (% protection) was calculated as the percent reduction of emetic episodes compared to controls. [formula]
Percent protection values were determined from experimental controls. Experimental controls were those obtained from the day of the experiment. Onset times of the first episode were averaged and recorded for each group. Prodromal signs (lip licking, slit eyes, head shaking, salivation, scratching, clawing, walking backward, sedation, urination, and defecation) were also averaged and recorded.

As for `COc1ccccc1C(=O)[C@@H]1Cc2[nH]cnc2CN1C` [Compd 43], at 5-HT3, the IC50 – broadly, the concentration that inhibits the measured activity by half – was found to be 2380 nM. For the same molecule, the inhibition in vivo at 0.1 mg/kg in the assay with Ferret was found to be 41%.

As to `CN1Cc2[nH]cnc2C[C@@H]1C(=O)Nc1nccs1` [Compd 12], the IC50 at 5-HT3 (setting [1]) is 273 nM. Also, in the assay on Ferret (setting [2]), the “Ferret Cisplatin Test % Prot, 0.1 mg/Kg” value was determined as 40%.

Turning to `COc1ccccc1NC(=O)[C@H]1Cc2[nH]cnc2CN1` [Compd 8], the IC50 on 5-HT3 (setting [1]) was 10.4 nM. The inhibition in vivo at 0.1 mg/kg in the assay with Ferret (setting [2]) was 62%.

For `CN1Cc2nc[nH]c2C[C@@H]1C(=O)Nc1nc2ccccc2s1` [Compd 13, (R)-6-(2-benzothiazolylaminocarbonyl)-5-methyl-4,5,6,7-tetrahydroimidazo[4,5-c]pyridine], the IC50 at 5-HT3 (setting [1]) was found to be 71.5 nM. In addition, in the assay with Ferret (setting [2]), the inhibition in vivo at 0.1 mg/kg was 76%. In the assay with Ferret (setting [3]), the ED50 (commonly the midpoint of the dose-response relation) stood at 0.074 mg/kg.

As to `CCN(CC)CCNC(=O)c1cc(Cl)c(N)cc1OC` [Metaclopramide, reference compound], inhibition on 5-HT3 was half-maximal at 514 nM (IC50). The inhibition in vivo at 0.1 mg/kg with Ferret (setting [2]) came out at 17%. Besides, the ED50 with Ferret (setting [3]) came out at 4.08 mg/kg.

On to `CN1Cc2nc[nH]c2C[C@H]1C(=O)Nc1cccc2c1NCCC2` [Compd 36], for which, at 5-HT3 (setting [1]), the concentration for half-maximal inhibition (IC50) was determined as 103 nM. Besides, the inhibition in vivo at 0.1 mg/kg in the assay with Ferret (setting [2]) was found to be 70%. For the same molecule, the ED50 with Ferret (setting [3]) was 0.081 mg/kg.

`CC(=O)c1ccccc1NC(=O)[C@H]1Cc2[nH]cnc2CN1C` [Compd 5]: the IC50 at 5-HT3 (setting [1]) stood at 4.26 nM. The inhibition in vivo at 0.1 mg/kg in the assay on Ferret (setting [2]) stood at 22%. The ED50 with Ferret (setting [3]) is 0.123 mg/kg.

Regarding `COc1ccccc1NC(=O)[C@@H]1Cc2[nH]cnc2CN1` [Compd 14, (S)-6-(2-methoxyphenyl)aminocarbonyl-4,5,6,7-tetrahydroimidazo[4,5-c]pyridine], the IC50 at 5-HT3 (setting [1]) came to 8.53 nM. Besides, the inhibition in vivo at 0.1 mg/kg in the assay with Ferret (setting [2]) amounted to 48%. For the same molecule, the ED50 with Ferret (setting [3]) is 0.062 mg/kg.

For the molecule `CCN1Cc2nc[nH]c2C[C@H]1C(=O)Nc1ccccc1O` [Compd 18], the IC50 at 5-HT3 (setting [1]) turned out to be 17.6 nM. For the same molecule, the inhibition in vivo at 0.1 mg/kg with Ferret (setting [2]) amounted to 46%. Further, the ED50 in the assay with Ferret (setting [3]) came out at 0.16 mg/kg.

In the case of `CCOc1ccccc1NC(=O)[C@H]1Cc2[nH]cnc2CN1C` [Compd 10], the IC50 at 5-HT3 (setting [1]) is 4.14 nM. Also, in the assay on Ferret (setting [2]), the inhibition in vivo at 0.1 mg/kg was 29%. In addition, in the assay with Ferret (setting [3]), the median effective dose (ED50) was 0.31 mg/kg.

Regarding `COc1ccc(Cl)cc1NC(=O)[C@H]1Cc2[nH]cnc2CN1C` [Compd 2], the IC50 on 5-HT3 (setting [1]) was 10 nM. The inhibition in vivo at 0.1 mg/kg in the assay with Ferret (setting [2]) is 31%. In addition, the ED50 in the assay with Ferret (setting [3]) came out at 0.4 mg/kg.

For `COc1ccc(Cl)cc1NC(=O)[C@@H]1Cc2[nH]cnc2CN1C` [Compd 7], at 5-HT3 (setting [1]), the IC50 was found to be 6.26 nM. In addition, the inhibition in vivo at 0.1 mg/kg in the assay with Ferret (setting [2]) was 57%. Further, the ED50 in the assay with Ferret (setting [3]) is 0.14 mg/kg.

In the case of `CN1Cc2nc[nH]c2C[C@@H]1C(=O)c1ccccc1` [Compd 19, (R)-6-benzoyl-5-methyl-4,5,6,7-tetrahydroimidazo[4,5-c]pyridine], on 5-HT3, the 50% inhibitory concentration (IC50) stood at 58.5 nM. The inhibition in vivo at 0.1 mg/kg with Ferret is 8%.

Turning to `CN1Cc2nc[nH]c2C[C@H]1C(=O)c1cc2ccccc2o1` [Compd 33, 6-(2-benzo[b]furanylcarbonyl)-5-methyl-4,5,6,7-tetrahydroimidazo[4,5-c]pyridine], the IC50 at 5-HT3 (setting [1]) was 2020 nM. Moreover, in the assay on Ferret, the inhibition in vivo at 0.1 mg/kg is 31% and the ED50 turned out to be 0.43 mg/kg.

On to `CN1Cc2nc[nH]c2C[C@H]1C(=O)Nc1cc(O)ccc1O` [Compd 40, (S)-6-(2,5-dihydroxyphenylaminocarbonyl)-5-methyl-4,5,6,7-tetrahydroimidazo[4,5-c]pyridine dihydrobromide], for which the IC50 at 5-HT3 (setting [1]) amounted to 45.9 nM. Moreover, the inhibition in vivo at 0.1 mg/kg with Ferret (setting [2]) came to 0%.

With `COC(=O)c1ccccc1NC(=O)[C@H]1Cc2[nH]cnc2CN1C` [Compd 4], the half-maximal inhibitory concentration (IC50) on 5-HT3 (setting [1]) was determined as 12.1 nM. Also, the inhibition in vivo at 0.1 mg/kg in the assay with Ferret (setting [2]) came out at 33%. In the assay with Ferret (setting [3]), the ED50 was 0.1 mg/kg.

For the molecule `CN1Cc2nc[nH]c2C[C@H]1C(=O)Nc1ccccc1Oc1ccccc1.Cl.Cl` [Compd 27, (S)-5-methyl-6-(2-phenoxyphenylaminocarbonyl)-4,5,6,7-tetrahydroimidazo[4,5-c]pyridine dihydrochloride], the concentration for half-maximal inhibition (IC50) on 5-HT3 (setting [1]) came to 6.92 nM. In the assay with Ferret (setting [2]), the inhibition in vivo at 0.1 mg/kg turned out to be 72%. In the assay with Ferret (setting [3]), the ED50 came out at 0.031 mg/kg.

Regarding `CN1Cc2nc[nH]c2C[C@H]1C(=O)Nc1ccccc1NC(=O)c1ccccc1` [Compd 26], the IC50 at 5-HT3 (setting [1]) turned out to be 289 nM. Moreover, the inhibition in vivo at 0.1 mg/kg in the assay with Ferret (setting [2]) came out at 0%.
